Patent US12685734B2, “N6-methyladenosine regulators in uterine fibroids” (The University of Chicago, priority 2021, dated 2026)

Key:
HuLM cells = experiment: Cell proliferation, trypan blue exclusion assay, METTL3 inhibition; assay type: cell-based, human; settings: 1-10 μM, 24 hours, vs DMSO vehicle, FIG. 9
Description: The HuLM cell line was cultured and maintained in phenol red-free, Dulbecco's Modified Eagle Medium: Nutrient Mixture F-12. The cells were grown at 37° C. and 5% CO2 in an incubator with saturating humidity.
Cell proliferation was measured using trypan blue exclusion assay. The cells were cultured in the absence or presence of the METTL3 inhibitor STM2457 at a dose range from 1-10 μM for 24 hours. DMSO was used as a vehicle control. Cells were trypsinized, collected by centrifuge, and resuspended in serum-free medium. Equal volumes of 0.4% trypan blue and cell suspension were mixed and cells were counted using a hemacytometer. This assay was performed three times in triplicate.

[1] = tested on: Eker rats carrying Tsc2 germline mutation; settings: early-life exposure during development of the uterus, cited from earlier work

| Compound | cell proliferation of UF cells (relative cell numbers) (HuLM cells) | tumor multiplicity and size ([1]; genetically predisposed animals) | tumor-suppressor-gene penetrance ([1]; spontaneous frequency 65%) [%] |
| --- | --- | --- | --- |
| STM2457 | decreases the cell proliferation |  |  |
| CC/C(=C(/CC)c1ccc(O)cc1)c1ccc(O)cc1 [diethylstilbestrol] |  | increases | > 90 |
